Results as given in patent publication US5461057A, “Hydro-ethano-indeno-pyridines” (priority 1994, dated 1995).
Like-named read-outs stand apart in the source and are kept apart here.

Assays:
[1] = Calcein cytotoxicity assay; assay type: cell-based; conditions: human, lox melanoma cells, calcein AM assay; for CC50 at 2 h: read-out: 2 Hr Tox LD50
[2] = test system: M27 murine lung carcinoma cell adhesion to fibronectin; test: M27 lung carcinoma cell adhesion to fibronectin; assay type: cell-based; conditions: Mus musculus; read-out: M27 FN IC50
Procedure: (§1) Adhesion assays were run essentially as described previously (Pai et al., J. Biomed. Res. 2: 53, 1992). 96-well plates were coated with human fibronectin (140 ng/well), human vitronectin (75 ng/well), human collagen I (100 ng/well), human collagen IV (100 ng/well), human fibrinogen (1 μg/well), murine laminin (600 ng/well), or polylysine, and incubated overnight in a humidified 37° C. incubator. Excess fibronectin or other substrate was then removed and 0.2 ml of 2 mg/ml bovine serum albumin (BSA)in Dulbecco's phosphate-buffered saline (DPBS) was added to each well, incubated for 2 hours at 37° C., and removed. LOX human melanoma cells, M27 murine lung carcinoma cells or B16F10 mouse melanoma cells were detached from tissue culture flasks with RPMI medium containing 0.2M urea and 10 mM EDTA, and 0.18 ml of cells were added to each well to a final cell concentration of 1×10^5 cells/well. For inhibition studies 20 μl of 10× compound was added to the wells prior to cell addition. Cells were allowed to adhere for 1 hour at 37° C. The wells were then gently washed twice with 0.2 ml DPBS. The fluorescent dye calcein AM (Molecular Probes, Eugene Oreg.) in DPBS (0.1 ml of 1 μM) was added to each well, and the plates were incubated for 1 hour at room temperature. Adherent cells were quantitated by reading the fluorescence on a Cytofluor 2300 fluorescent plate reader (Millipore) at 485 nm excitation and 530 nm emission.

[3] = test system: B16-F10 mouse melanoma cell adhesion to fibronectin; test: B16-F10 melanoma cell adhesion to fibronectin; assay type: cell-based; conditions: read-out: B16 FN IC50
Procedure: as §1

[4] = test system: LOX human melanoma cell adhesion to polylysine; test: LOX melanoma cell adhesion to polylysine; assay type: cell-based; conditions: read-out: Poly Lys IC50
[5] = target: ELAM-1 (Homo sapiens, UniProt P16581); test: cell-based
ELAM-1, sequence (P16581 22-610): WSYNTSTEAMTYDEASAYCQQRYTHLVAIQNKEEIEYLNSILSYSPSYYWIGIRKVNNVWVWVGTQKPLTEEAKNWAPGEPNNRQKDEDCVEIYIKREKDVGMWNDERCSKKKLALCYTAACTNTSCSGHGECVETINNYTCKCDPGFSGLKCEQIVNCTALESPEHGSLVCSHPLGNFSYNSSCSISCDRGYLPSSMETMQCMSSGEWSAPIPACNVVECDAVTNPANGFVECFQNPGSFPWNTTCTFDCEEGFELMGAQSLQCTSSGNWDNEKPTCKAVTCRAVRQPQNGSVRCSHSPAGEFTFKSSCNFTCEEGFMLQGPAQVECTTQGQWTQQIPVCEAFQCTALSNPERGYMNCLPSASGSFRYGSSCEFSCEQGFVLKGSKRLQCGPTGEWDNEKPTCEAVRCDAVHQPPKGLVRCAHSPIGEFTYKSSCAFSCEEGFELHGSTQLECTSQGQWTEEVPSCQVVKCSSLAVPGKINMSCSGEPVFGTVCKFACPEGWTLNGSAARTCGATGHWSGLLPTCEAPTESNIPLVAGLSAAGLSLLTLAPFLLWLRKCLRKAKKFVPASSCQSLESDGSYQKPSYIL
Procedure: Cell adhesion to ELAM-1 was measured essentially as described previously (Pal et al., J. Biomed. Res. 2: 53, 1992). Undifferentiated HL-60 leukemia cells were prelabelled for 30 minutes with 1 μM calcein AM in DPBS without calcium or magnesium, and the cells were washed twice with the same medium before addition to 96-well plates containing monolayers of mouse L cells (5×10^4 cells/well) transfected with cDNA for the adhesion molecule ELAM-1. Adhesion was allowed to proceed for 30 minutes at room temperature before washing and quantitation of the remaining fluorescent HL-60 cells as described above.
ELAM-1 (E-selectin) is a member of the selectin class of adhesion molecules.

[6] = test system: LOX human melanoma cell adhesion to human fibronectin; test: LOX melanoma cell adhesion to fibronectin; assay type: cell-based; conditions: Homo sapiens, LOX; for inhibition at 10 µM: read-out: % Inhibition at 10 μM; for inhibition at 50 µM: read-out: % Inhibition at 50 μM
Outline: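 Compound added to fibronectin-coated (140 ng/well), BSA-blocked wells before LOX cells (1×10^5/well, detached with urea/EDTA). Cells adhered 1 h at 37 °C, then washed. Adherent cells quantified by calcein AM fluorescence (485/530 nm); IC50 for adhesion inhibition.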

[7] = test system: histamine-induced dyspnea; test: Bronchodilator (in vivo) Guinea Pig Dyspnea; conditions: 100 mg/kg, oral, one hour before histamine challenge
Outline: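 Fasted, unanesthetized guinea pigs (250-350 g) received the test drug orally one hour before exposure to an aerosolized 0.1% histamine solution. Onset of dyspnea was recorded, and data were expressed as number tested over number survived.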

[8] = target: T1, ICAM-1 (Homo sapiens, UniProt P05362); test: HL-60 cell adhesion to recombinant soluble ICAM-1; assay type: cell-based; conditions: HL-60 cells
T1 construct: recombinant soluble ICAM-1 (2 μg/well)
T1 sequence (P05362 28-480 limits assumed): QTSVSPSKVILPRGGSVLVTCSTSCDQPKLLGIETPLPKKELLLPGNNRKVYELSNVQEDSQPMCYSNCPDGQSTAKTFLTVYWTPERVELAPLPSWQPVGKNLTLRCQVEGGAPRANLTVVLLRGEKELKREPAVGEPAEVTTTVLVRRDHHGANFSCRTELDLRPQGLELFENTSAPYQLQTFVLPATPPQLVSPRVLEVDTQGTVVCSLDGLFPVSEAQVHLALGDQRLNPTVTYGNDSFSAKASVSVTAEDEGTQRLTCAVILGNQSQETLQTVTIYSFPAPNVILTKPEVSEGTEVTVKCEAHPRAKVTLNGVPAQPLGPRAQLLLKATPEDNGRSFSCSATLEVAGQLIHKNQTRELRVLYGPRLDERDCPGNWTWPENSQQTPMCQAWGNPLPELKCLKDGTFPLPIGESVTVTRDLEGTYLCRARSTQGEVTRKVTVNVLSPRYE
Procedure: For measurement of cell adhesion to ICAM-1, HL-60 human leukemia cells were induced to differentiate in the presence of DMSO for 6 days. Adhesion of DMSO-differentiated HL-60 cells to recombinant soluble ICAM-1 (2 μg/well) was measured as described above for LOX cell adhesion, except that the adhesion was allowed to proceed for 30 minutes, rather than 1 hour, at 37° C.
ICAM-1 is a cell surface adhesion molecule that participates in cell-cell adhesion interactions, rather than cell-matrix adhesion interactions.

[9] = MTT cytotoxicity assay; assay type: cell-based; conditions: human, lox melanoma cells, read-out: MTT 1 Hr LD50
Procedure: LOX human melanoma cells, in RPMI medium with 2 mg/ml BSA and 25 mM HEPES, pH 7.4, were seeded at 4×10^4 cells/well in 96-well microtiter plates and grown overnight in a humidified 37° C. incubator. On the following day, the medium was aspirated and wells were washed once with 0.1 ml of DPBS. Compounds (0.1 ml) in DPBS were added to wells in quadruplicate at appropriate concentrations. The cells were then incubated with test compound for 1 hour at 37° C. Wells were aspirated and washed 2× with 0.1 ml DPBS. MTT [3-(4,5-Dimethylthiazol-2-yl)-2,5-diphenyltetrazolium bromide] (0.1 ml of 1 mg/ml solution in PBS from Sigma Chemical Co.) was added to each well and incubated for 2 hour at 37° C. MTT was aspirated and 0.1 ml of 50% N,N-dimethylformamide with 20% sodium dodecyl sulfate was added to each well. Plates were shaken for 10 minutes on a Titer-Plate shaker (Labline) at room temperature. Optical density was read at 570 nm with a plate-reading spectrophotometer (Dynatech MR5000).

[10] = test system: LOX human melanoma cells; test: Tumor cell invasion through collagen/fibronectin coated membranes; assay type: cell-based
Procedure: […] Cell Invasion Through Collagen/Fibronectin Coated Membranes:
Nucleopore polycarbonate membranes (8 μm pore size) were coated with 0.05 ml of type I collagen and allowed to dry overnight. 210 μl of serum free DMEM with BSA was added to each Boyden chamber. Membranes were placed in chambers and upper chambers were screwed on. Human fibronectin (50 μl of 0.1 mg/ml solution in DMEM with BSA) was added to the top chamber and allowed to sit on membranes for 1 hour at room temperature. Compounds (50 μl) at 10× concentration in DMEM with BSA were added to the chambers. LOX melanoma cells were detached from flasks with trypsin/EDTA solution and resuspended in RPMI with 10% fetal bovine serum. Cells were centrifuged, washed 2× with DMEM with BSA, and resuspended in 10 ml of DMEM with BSA. LOX cells (0.45 ml of 7.8×10^5 cells per ml) were added to each chamber and chambers were incubated for 5 hours at 37° C. The medium was removed from the upper chamber by aspiration, the top chamber was unscrewed, and the membrane was removed. The membrane was inverted, pinned to a dissecting tray, and fixed with Diff Quik fixative for 3 minutes The fixative was then removed and Diff Quik Stain was added for 2 minutes. The stain was decanted and membranes were rinsed with distilled water. Membranes were inverted onto glass slides, and non-invading cells were wiped away with a cotton swab. Permount was added to the slide and the membrane was covered with a cover slip. The number of cells that invaded was quantitated on a Nikon TMS microscope with C-2 Image Analyzer software (Olympus Corp.).
The greater potency of the compounds in this assay (IC50 for compound B<400 nM) may result from the longer duration of this assay (5 hours) relative to the fibronectin adhesion assay (1 hour).

[11] = test system: LOX human melanoma cell adhesion to human fibrinogen; test: LOX cell adhesion to fibrinogen; assay type: cell-based; conditions: read-out: Fibrinogen IC50
Procedure: as §1

[12] = test system: LOX human melanoma cell adhesion to murine laminin; test: LOX cell adhesion to laminin; assay type: cell-based; conditions: read-out: Laminin IC50
Procedure: as §1

[13] = test system: LOX human melanoma cell adhesion to human collagen IV; test: LOX cell adhesion to collagen IV; assay type: cell-based; conditions: read-out: Collagen IV IC50
Procedure: as §1

[14] = test system: LOX human melanoma cell adhesion to human vitronectin; test: LOX cell adhesion to vitronectin; assay type: cell-based; conditions: read-out: Vitronectin IC50
Procedure: as §1

[15] = test system: LOX human melanoma cell adhesion to human collagen I; test: LOX cell adhesion to collagen I; assay type: cell-based; conditions: read-out: Collagen I IC50
Procedure: as §1

Work on `CSc1ccc(C2=C3CC4CCC(C3c3ccccc32)N4C)cc1` (centres unmarked) [F, 1SR:3RS:9b-1,3 Ethano-2-methy-5-(p-methylmercaptophenyl)-1,3,4,9b-tetrahydro-2H-indeno-(2h-indeno) [1,2-c]pyridine] yielded a CC50 at 2 h [1] of 43.3 µM, a CC50 at 6 h ([1]; 6 hours, read-out: 6 Hr Tox LD50) of 19.9 µM and an IC50 [2] of 8.7 µM. For the same molecule, the IC50 [3] was 24.2 µM, the IC50 [4] was 24.4 µM and the IC50 [5] was > 50 µM. It also gave an IC50 ([6]; 1 h, read-out: LOX FN IC50) of 5.1 µM, an inhibition at 10 µM [6] of 49.4% and an inhibition at 50 µM [6] of 102%. For the same molecule, the responders at 100 mg/kg ([7]; Cavia porcellus, 1 h, read-out: DYSP survivors (converted)) was 0%, the IC50 [8] was 16.8 µM and the CC50 at 1 h [9] was 51.7 µM. The IC50 ([10]; Homo sapiens, 5 hours, read-out: Invasion IC50) was 0.52 µM and the “inhibition of in vitro tumor cell invasion” value ([10]; fibronectin/collagen matrix) was “inhibit in vitro tumor cell invasion through a fibronectin/collagen matrix”.
In the case of `CN1C2CCC1C1C(=C(c3ccccc3C(F)(F)F)c3ccccc31)C2` (centres unmarked) [Compound S], the CC50 at 2 h [1] is reported as > 250 µM, the IC50 [11] is reported as 15.7 µM and the IC50 [4] is reported as > 250 µM. The IC50 [12] was 7.7 µM, the inhibition at 10 µM ([6]; 10 μM) was -4.4% and the inhibition at 50 µM ([6]; 50 μM) was 90.2%. For the same molecule, the IC50 ([6]; Table 4, 1 hour adhesion, read-out: LOX FN IC50) was 17.7 µM, the IC50 ([6]; Table 5, read-out: Fibronectin IC50) was 17.7 µM and the DYSP survivors [7] was 0/3. It also gave an IC50 [13] of 19.2 µM, an IC50 [14] of 20.2 µM and an IC50 [15] of 11.6 µM.
